Experimental findings from patent US20120088737A2, “NOVEL ACYL GUANIDINE DERIVATIVES” (AJINOMOTO CO., INC, priority 2009, published 2012) are described below.

One assay deals with T1, NHE1 (Homo sapiens, UniProt P19634).
T1 construct: HLF cells (Human hepatoma cell line) were used as cells for the test; endogenous in cells; host or cells: HLF cells (human hepatoma cell line)
Briefly: Measurements of NHE1 inhibitory activities (HLF cells, BCECF pH recovery). Type of assay: cell-based. Particulars: HLF cells (human hepatoma cell line), measured after 10 minutes; read-out: hNHE1 IC50. Here is the method:
Pharmacological Test Example 1: Measurements of NHE1 Inhibitory Activities
HLF cells (Human hepatoma cell line) were used as cells for the test. After 1×10^4 cells/well were seeded to a 96-well plate and cultured for 3 days, they were cultured overnight under a serum-free medium. Then, the cells were incubated in a stain solution of Tetramethylammonium (TMA) Buffer (130 mM TMA-C1, 5 mM KCl, 2 mM CaCl2, 1 mM MgSO2, 25 mM glucose, 20 mM HEPES; pH 7.4) containing 40 mM NH4Cl and 1 μg/mL pH-sensitive fluorescent indicator BCECF-AM at 37° C. for 40 minutes and then BCECF was introduced into the cells. After the cells were washed once with TMA Buffer and incubated in TMA+40 mM NH4Cl solution at 37° C. for 15 minutes, the solution was removed and 20 μL/well of TMA Buffer and 10 μL/well of each test compound solution prepared with TMA Buffer were added to each well. The measurements were carried out by adding 200 μL/well of Na Buffer (130 mM, NaCl, 5 mM KCl, 2 mM CaCl2, 1 mM MgSO2, 1 mM NaH2PO4, 25 mM glucose, 20 mM HEPES; pH 7.4) or TMA Buffer (for base measurement), immediately placing it on FlexStation (Molecular Device) and then, after 10 minutes, measuring, it the two wavelengths of 505 nm (excitation wavelength)/530 nm (emission wavelength) (measurement value) and 440 nm (excitation wavelength)/530 nm (emission wavelength) (isosbestic point value). A NHE activity was calculated by dividing a measurement value by an isosbestic point value and a NHE1 inhibitory activity was calculated by the following equation. NHE1 inhibitory activity (%)=100×(1−(Measurement value [addition of each compound]−Base [addition of TMA Buffer])/(Control [addition of Na Buffer]−Base [addition of TMA Buffer]))

Another assay deals with T2, human NHE3 (Homo sapiens, UniProt P48764).
T2 construct: expressed in transfected cells; host or cells: OK26 cells (opossum kidney OK cells); OK26 ND sublines with opNHE1 reduced by 90% for A3
T2 sequence (P48764 26-834): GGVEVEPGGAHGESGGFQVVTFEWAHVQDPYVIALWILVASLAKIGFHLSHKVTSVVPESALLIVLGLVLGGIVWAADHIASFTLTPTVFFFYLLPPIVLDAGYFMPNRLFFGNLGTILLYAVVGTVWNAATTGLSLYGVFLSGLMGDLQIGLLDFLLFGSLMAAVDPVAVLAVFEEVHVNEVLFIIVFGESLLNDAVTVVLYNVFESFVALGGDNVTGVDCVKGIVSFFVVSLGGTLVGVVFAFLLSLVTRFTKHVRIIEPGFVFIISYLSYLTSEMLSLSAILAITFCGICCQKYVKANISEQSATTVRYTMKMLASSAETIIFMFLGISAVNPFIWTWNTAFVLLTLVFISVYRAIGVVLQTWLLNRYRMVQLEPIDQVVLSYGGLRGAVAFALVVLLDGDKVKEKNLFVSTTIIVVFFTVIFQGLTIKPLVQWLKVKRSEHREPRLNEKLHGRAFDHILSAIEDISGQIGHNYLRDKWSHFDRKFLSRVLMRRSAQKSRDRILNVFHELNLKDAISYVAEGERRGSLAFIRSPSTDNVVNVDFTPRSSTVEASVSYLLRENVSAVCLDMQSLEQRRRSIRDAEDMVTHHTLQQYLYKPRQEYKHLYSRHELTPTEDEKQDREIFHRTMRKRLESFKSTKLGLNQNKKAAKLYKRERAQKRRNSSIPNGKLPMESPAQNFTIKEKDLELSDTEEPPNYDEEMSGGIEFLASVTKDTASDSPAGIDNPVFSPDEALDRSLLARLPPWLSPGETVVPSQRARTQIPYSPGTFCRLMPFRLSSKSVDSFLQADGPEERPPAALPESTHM
Nature of the assay: Improved version of measurements of NHE3 inhibitory activities (OK26 ND cell lines). The format is cell-based. Particulars: OK26 ND cell lines (opNHE1 expression reduced by 90%), measurement time 8 minutes at 26° C.; read-out: hNHE3 IC50. Here is the method: Pharmacological Test Example 3: Improved Version of Measurements of NHE3 Inhibitory Activities
OK26 cells express endogeneous NHE1 (opNHE1). In order to evaluate NHE3 inhibitory activities more precisely, OK26 ND cell lines in which the expression level of opNHE1 is reduced by 90% were established. Measurements of NEE inhibitory activities were carried out by using the established cell lines in the same manner as described in Pharmacological Test Example 1 except that the measurement time was 8 minutes (at 26° C.) to calculate more precise NHE3 inhibitory activities.

Usually IC50 stands for the concentration that gives 50% inhibition.

T1 sequence (P19634 whole entry): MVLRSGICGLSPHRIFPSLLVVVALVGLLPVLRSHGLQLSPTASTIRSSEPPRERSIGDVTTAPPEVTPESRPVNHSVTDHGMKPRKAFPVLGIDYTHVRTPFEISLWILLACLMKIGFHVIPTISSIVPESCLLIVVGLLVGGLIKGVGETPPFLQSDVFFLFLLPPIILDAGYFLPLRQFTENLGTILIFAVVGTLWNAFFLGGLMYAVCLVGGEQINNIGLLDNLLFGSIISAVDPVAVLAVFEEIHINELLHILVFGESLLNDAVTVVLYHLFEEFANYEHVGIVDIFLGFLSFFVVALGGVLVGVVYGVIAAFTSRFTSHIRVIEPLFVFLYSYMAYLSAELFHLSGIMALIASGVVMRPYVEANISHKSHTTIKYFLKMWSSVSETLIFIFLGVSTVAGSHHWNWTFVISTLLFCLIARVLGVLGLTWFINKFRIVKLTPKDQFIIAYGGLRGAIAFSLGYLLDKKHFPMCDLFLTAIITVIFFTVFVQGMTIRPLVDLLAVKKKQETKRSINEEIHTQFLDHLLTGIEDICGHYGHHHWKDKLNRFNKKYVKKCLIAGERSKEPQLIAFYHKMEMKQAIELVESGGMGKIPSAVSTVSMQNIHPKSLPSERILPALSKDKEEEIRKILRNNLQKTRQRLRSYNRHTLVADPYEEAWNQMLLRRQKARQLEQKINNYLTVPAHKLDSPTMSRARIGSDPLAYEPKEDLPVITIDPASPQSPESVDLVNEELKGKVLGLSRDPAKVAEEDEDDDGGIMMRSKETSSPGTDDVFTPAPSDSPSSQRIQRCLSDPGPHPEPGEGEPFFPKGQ

Turning to `C/C(=C\c1ccc(Oc2ccc(O)cc2)cc1-c1ccc(O)cc1)C(=O)NC(=N)N` [Example 71, N-{(E)-3-[4′-hydroxy-5-(4-hydroxy-phenoxy)-biphenyl-2-yl]-2-methyl-acryloyl}-guanidine], the IC50 came out at 1300 nM at NHE1 and 130 nM at human NHE3.
The like results for `C/C(=C\c1ccc(-c2ccc(O)cc2)cc1-c1ccc(O)cc1)C(=O)NC(=N)N` [Example 72, N-[(E)-3-(2,4-di(4-hydroxyphenyl)-phenyl)-2-methyl-acryloyl]-guanidine] were, in that order, 1100 nM and 87 nM.
In the case of `COc1ccc(-c2cc(C)ccc2/C=C(\C)C(=O)NC(=N)N)cc1O` [Example 74, N-[(E)-3-(3′-hydroxy-4′-methoxy-5-methyl-biphenyl-2-yl)-2-methyl-acryloyl]-guanidine], the IC50 on NHE1 worked out at 1400 nM; on human NHE3, 200 nM.
The like results for `C/C(=C\c1ccc(-c2cc(C)c(O)c(C)c2)cc1-c1cc(C)c(O)c(C)c1)C(=O)NC(=N)N` [Example 75, N-[(E)-3-(2,4-di(3,5-dimethyl-4-hydroxyphenyl)-phenyl)-2-methyl-acryloyl]-guanidine] were, in that order, 1800 nM and 100 nM.
For `C/C(=C\c1ccc(-c2ccc(F)c(O)c2)cc1-c1ccc(F)c(O)c1)C(=O)NC(=N)N` [Example 76, N-[(E)-3-(2,4-di(3-hydroxy-4-fluorophenyl)-phenyl)-2-methyl-acryloyl]-guanidine], in that order: 1100 nM and 400 nM.
For `C/C(=C\c1ccc(-c2cccc(O)c2)cc1-c1cccc(O)c1)C(=O)NC(=N)N` [Example 77, N-[(E)-3-(2,4-di(3-hydroxyphenyl)-phenyl)-2-methyl-acryloyl]-guanidine], in that order: 940 nM and 61 nM.
For the compound `COc1cc(-c2ccc(/C=C(\C)C(=O)NC(=N)N)c(-c3ccc(O)c(OC)c3)c2)ccc1O` [Example 78, N-[(E)-3-(2,4-di(3-methoxy-4-hydroxyphenyl)-phenyl)-2-methyl-acryloyl]-guanidine], the IC50 turned out to be 3300 nM at NHE1 and 150 nM on human NHE3.
The like results for `C/C(=C\c1ccc(C)cc1-c1ccc(C(=N)N)c(F)c1)C(=O)NC(=N)N` [Example 79, (E)-3-fluoro-2′-(3-guanidino-2-methyl-3-oxo-propenyl)-5′-methyl-biphenyl-4-carboxamidine] were, in that order, 5200 nM and 700 nM.
The like results for `C/C(=C\c1c(-c2ccc(O)cc2)cccc1-c1ccc(O)cc1)C(=O)NC(=N)N` [Example 80, N-[(E)-3-(4,4″-dihydroxy-[1,1′;3′,1″]terphenyl-2′-yl)-2-methyl-acryloyl]-guanidine] were, in that order, 7700 nM and 200 nM.
For `C/C(=C\c1ccc(C(F)(F)F)cc1-c1ccc(O)cc1)C(=O)NC(=N)N` [Example 81, N-[(E)-3-(4′-hydroxy-5-trifluoromethyl-biphenyl-2-yl)-2-methyl-acryloyl]-guanidine], in that order: 5200 nM and 630 nM.
In the case of `C/C(=C\c1c(F)cccc1-c1ccc(O)cc1)C(=O)NC(=N)N` [Example 82, N-[(E)-3-(3-fluoro-4′-hydroxy-biphenyl-2-yl)-2-methyl-acryloyl]-guanidine], the IC50 at NHE1 turned out to be 6600 nM; at human NHE3 it was 350 nM.
For `C/C(=C\c1ccccc1-c1cscc1C)C(=O)NC(=N)N` [Example 83, N-{(E)-2-methyl-3-[2-(4-methyl-thiophene-3-yl)-phenyl]-acryloyl}-guanidine], in that order: 2200 nM and 540 nM.
The like results for `C/C(=C\c1ccccc1-c1cc[nH]c1)C(=O)NC(=N)N` [Example 84, N-{(E)-2-methyl-3-[2-(1H-pyrrole-3-yl)-phenyl]-acryloyl}-guanidine] were, in that order, 2100 nM and 180 nM.
With `C/C(=C\c1ccc(-c2ccc(O)cc2)cc1N1CCOCC1)C(=O)NC(=N)N` [Example 94, N-[(E)-3-(4′-hydroxy-3-morpholine-4-yl-biphenyl-4-yl)-2-methyl-acryloyl]-guanidine], the IC50 on NHE1 is 2100 nM; at human NHE3, 320 nM.
